Measured values from ChEMBL document CHEMBL4052707, “Structure-activity relationships of 3-O-β-chacotriosyl oleanic acid derivatives as entry inhibitors for highly pathogenic H5N1 influenza virus” (Bioorg Med Chem, 2017).
The source made the active and inactive calls. The calls are words filed in the database; no cut-off is given here.

Tests used:
[1] = Selectivity index, ratio of CC50 for MDCK cells to IC50 for Influenza A virus (A/Thailand/Kan353/2004(H5N1); type: toxicity; conditions: dog, read-out: Ratio CC50/IC50
[2] = Antiviral activity against Influenza A virus (A/Thailand/Kan353/2004(H5N1)) co-expressing NA plasmid infected in 293T cells assessed as inhibition of viral entry incubated for 30 mins followed by addition of cells measured after 48 hrs by luciferase reporter gene assay; type: functional, cell-based; conditions: HEK-293T
[3] = Cytotoxicity against MDCK cells after 2 days by MTT assay; type: cell-based, Canis lupus familiaris; conditions: dog
[4] = system: Human immunodeficiency virus 1; test: Antiviral activity against VSV-g pseudotyped HIV1 infected in 293T cells cotransfected with HA and NA plasmid incubated for 30 mins followed by addition of cells measured after 48 hrs by luciferase reporter gene assay; type: functional, cell-based
Influenza A virus = test: Inhibition of Influenza A virus H5N1 neuraminidase N1 subtype at 20 uM/L after 30 mins by fluorescence assay
[5] = system: Influenza A virus (A/Viet Nam/1203/2004(H5N1)); test: (§1) Binding affinity to Influenza A virus (A/Viet Nam/1203/2004(H5N1)) Fc-tagged hemagglutinin 2 after 250 secs by SPR analysis
[6] = as §1
[7] = biological target: Peptidyl-prolyl cis-trans isomerase FKBP1A (Homo sapiens) (UniProt P62942); test: Binding affinity to FKBP12 (unknown origin) after 250 secs by SPR analysis
[8] = system: Influenza A virus (A/Vietnam/1194/2004(H5N1)); test: (§2) Binding affinity to Influenza A virus (A/Vietnam/1194/2004(H5N1)) His-tagged hemagglutinin after 250 secs by SPR analysis
[9] = as §2
[10] = system: Influenza A virus (A/Puerto Rico/8/1934(H1N1)); test: Inhibition of Influenza A virus (A/Puerto Rico/8/34(H1N1)) […] hemagglutination of chicken RBC at 20 uM incubated for 1 hr followed by chicken RBC addition measured for 10 mins

Chain of Peptidyl-prolyl cis-trans isomerase FKBP1A (Homo sapiens) (P62942 whole entry): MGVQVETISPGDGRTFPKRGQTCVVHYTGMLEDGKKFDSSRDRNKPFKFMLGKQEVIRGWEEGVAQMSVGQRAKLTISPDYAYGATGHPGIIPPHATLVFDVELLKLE

| Structure (SMILES) | selectivity ratio [1] | IC50 [2] [µM] | CC50 at 48 h [3] [µM] | Activity [4] | inhibition (Influenza A virus) | Activity [5] | Kd [6] [µM] | Activity [7] | Activity [8] | Kd [9] [µM] | inhibition [10] |
| --- | --- | --- | --- | --- | --- | --- | --- | --- | --- | --- | --- |
| O=C(NCCN1CCCCC1)c1cc(F)cc(C(F)(F)F)c1 | 332 | 4.45 |  |  |  |  |  |  |  |  |  |
| CC1(C)CC[C@]2(C(=O)OCc3ccccc3)CC[C@]3(C)C(=CC[C@@H]4[C@@]5(C)CC[C@H](O[C@@H]6O[C@H](CO)[C@@H](O[C@@H]7OC[C@H](O)[C@H](O)[C@H]7O)[C@H](O)[C@H]6O[C@@H]6OC[C@H](O)[C@H](O)[C@H]6O)C(C)(C)[C@@H]5CC[C@]43C)[C@@H]2C1 | < 1 | > 50 | 26.4 |  |  |  |  |  |  |  |  |
| COC(=O)[C@]12CCC(C)(C)C[C@H]1C1=CC[C@@H]3[C@@]4(C)CC[C@H](O[C@@H]5O[C@H](CO)[C@@H](O)[C@H](O)[C@H]5O[C@@H]5O[C@@H](C)[C@H](O)[C@@H](O)[C@H]5O)C(C)(C)[C@@H]4CC[C@@]3(C)[C@]1(C)CC2 | 1.4 | 16.3 | 23.6 |  |  |  |  |  |  |  |  |
| COC(=O)[C@]12CCC(C)(C)C[C@H]1C1=CC[C@@H]3[C@@]4(C)CC[C@H](O[C@@H]5O[C@H](CO)[C@H](O[C@H]6O[C@H](C)[C@@H](O)[C@H](O)[C@@H]6O)[C@H](O)[C@H]5O[C@H]5O[C@H](C)[C@@H](O)[C@H](O)[C@@H]5O)C(C)(C)[C@@H]4CC[C@@]3(C)[C@]1(C)CC2 | 4.1 | 11.1 | 45.6 |  |  |  |  |  |  |  |  |
| COC(=O)[C@]12CCC(C)(C)C[C@H]1C1=CC[C@@H]3[C@@]4(C)CC[C@H](O[C@@H]5O[C@H](CO)[C@@H](O)[C@H](O[C@@H]6O[C@@H](C)[C@H](O)[C@@H](O)[C@H]6O)[C@H]5O[C@@H]5O[C@@H](C)[C@H](O)[C@@H](O)[C@H]5O)C(C)(C)[C@@H]4CC[C@@]3(C)[C@]1(C)CC2 | < 1 | > 50 | 22.4 |  |  |  |  |  |  |  |  |
| C[C@H]1O[C@H](O[C@@H]2[C@H](O)[C@@H](O[C@H]3O[C@H](C)[C@@H](O)[C@H](O)[C@@H]3O)[C@H](O[C@H]3CC[C@]4(C)[C@H]5CC=C6[C@@H]7CC(C)(C)CC[C@]7(C(=O)OCc7ccccc7)CC[C@@]6(C)[C@]5(C)CC[C@H]4C3(C)C)O[C@@H]2CO)[C@@H](O)[C@@H](O)[C@@H]1O | 8.8 | 9.36 | 82.4 |  |  |  |  |  |  |  |  |
| C[C@@H]1O[C@@H](O[C@H]2[C@H](O[C@@H]3CC[C@]4(C)[C@H]5CC=C6[C@@H]7CC(C)(C)CC[C@]7(C(=O)OCc7ccccc7)CC[C@@]6(C)[C@]5(C)CC[C@H]4C3(C)C)O[C@H](CO)[C@@H](O[C@@H]3O[C@@H](C)[C@H](O)[C@@H](O)[C@H]3O)[C@@H]2O)[C@H](O)[C@H](O)[C@H]1O | > 34 | 5.88 | > 200 | inactive | inactive | Dose-dependent effect | 0.000553 | inactive | Dose-dependent effect | 0.443 |  |
| COC(=O)[C@]12CCC(C)(C)C[C@H]1C1=CC[C@@H]3[C@@]4(C)CC[C@@H](O[C@@H]5O[C@H](CO)[C@@H](O[C@@H]6O[C@@H](C)[C@H](O)[C@@H](O)[C@H]6O)[C@H](O)[C@H]5O[C@@H]5O[C@@H](C)[C@H](O)[C@@H](O)[C@H]5O)C(C)(C)[C@@H]4CC[C@@]3(C)[C@]1(C)CC2 | > 40 | 5.06 | > 200 |  |  |  |  |  |  |  |  |
| CC1(C)CC[C@]2(C(=O)OCc3ccccc3)CC[C@]3(C)C(=CC[C@@H]4[C@@]5(C)CC[C@H](O[C@@H]6O[C@H](CO)[C@@H](O[C@H]7OC[C@@H](O)[C@H](O)[C@H]7O)[C@H](O)[C@H]6O[C@H]6OC[C@@H](O)[C@H](O)[C@H]6O)C(C)(C)[C@@H]5CC[C@]43C)[C@@H]2C1 | < 1 | > 50 | 20.8 |  |  |  |  |  |  |  |  |
| C[C@@H]1O[C@H](O[C@H]2[C@H](O[C@H]3CC[C@]4(C)[C@H]5CC=C6[C@@H]7CC(C)(C)CC[C@]7(C(=O)OCc7ccccc7)CC[C@@]6(C)[C@]5(C)CC[C@H]4C3(C)C)O[C@H](CO)[C@@H](O[C@H]3O[C@@H](C)[C@@H](O)[C@@H](O)[C@@H]3O)[C@@H]2O)[C@@H](O)[C@H](O)[C@@H]1O | 3.2 | 8.65 | 27.4 | inactive | inactive |  |  |  |  |  |  |
| C[C@H]1O[C@H](O[C@H]2[C@H](O[C@H]3CC[C@]4(C)[C@H]5CC=C6[C@@H]7CC(C)(C)CC[C@]7(C(=O)OCc7ccccc7)CC[C@@]6(C)[C@]5(C)CC[C@H]4C3(C)C)O[C@H](CO)[C@@H](O[C@H]3O[C@H](C)[C@@H](O)[C@H](O)[C@@H]3O)[C@@H]2O)[C@@H](O)[C@@H](O)[C@@H]1O | < 1 | > 50 | 52.4 |  |  |  |  |  |  |  |  |
| COC(=O)[C@]12CCC(C)(C)C[C@H]1C1=CC[C@@H]3[C@@]4(C)CC[C@H](O[C@@H]5O[C@H](CO)[C@@H](O)[C@H](O[C@@H]6O[C@@H](C)[C@H](O)[C@@H](O)[C@H]6O)[C@H]5O)C(C)(C)[C@@H]4CC[C@@]3(C)[C@]1(C)CC2 | < 1 | > 50 | 25.3 |  |  |  |  |  |  |  |  |
| C[C@@H]1O[C@@H](O[C@H]2[C@H](O[C@H]3CC[C@]4(C)[C@H]5C(=O)C=C6[C@@H]7CC(C)(C)CC[C@]7(C(=O)OCc7ccccc7)CC[C@@]6(C)[C@]5(C)CC[C@H]4C3(C)C)O[C@H](CO)[C@@H](O[C@@H]3O[C@@H](C)[C@H](O)[C@@H](O)[C@H]3O)[C@@H]2O)[C@H](O)[C@H](O)[C@H]1O | 22.9 | 4.05 | 92.7 | inactive | inactive | Dose-dependent effect | 0.00386 | inactive | Dose-dependent effect | 0.0617 | inactive |
| COC(=O)[C@]12CCC(C)(C)C[C@H]1C1=CC[C@@H]3[C@@]4(C)CC[C@H](O[C@@H]5O[C@H](CO)[C@@H](O[C@@H]6O[C@@H](C)[C@H](O)[C@@H](O)[C@H]6O)[C@H](O)[C@H]5O[C@@H]5O[C@@H](C)[C@H](O)[C@@H](O)[C@H]5O)C(C)(C)[C@@H]4CC[C@@]3(C)[C@]1(C)CC2 | 3.6 | 4.74 |  |  |  |  |  |  |  |  |  |
| C[C@@H]1O[C@@H](O[C@H]2[C@H](O[C@H]3CC[C@]4(C)[C@H]5CC=C6[C@@H]7CC(C)(C)CC[C@]7(C(=O)OCc7ccccc7)CC[C@@]6(C)[C@]5(C)CC[C@H]4C3(C)C)O[C@H](CO)[C@@H](O[C@@H]3O[C@@H](C)[C@H](O)[C@@H](O)[C@H]3O)[C@@H]2O)[C@H](O)[C@H](O)[C@H]1O | 4.9 | 4.82 | 23.5 |  |  |  |  |  |  |  |  |
| CC1(C)CC[C@]2(C(=O)OCc3ccccc3)CC[C@]3(C)C(=CC[C@@H]4[C@@]5(C)CC[C@H](O[C@@H]6O[C@H](CO)[C@@H](O[C@@H]7OC[C@@H](O)[C@@H](O)[C@@H]7O)[C@H](O)[C@H]6O[C@@H]6OC[C@@H](O)[C@@H](O)[C@@H]6O)C(C)(C)[C@@H]5CC[C@]43C)[C@@H]2C1 | < 1 | > 50 | 48.2 |  |  |  |  |  |  |  |  |
| COC(=O)[C@]12CCC(C)(C)C[C@H]1C1=CC(=O)[C@@H]3[C@@]4(C)CC[C@H](O[C@@H]5O[C@H](CO)[C@@H](O[C@@H]6O[C@@H](C)[C@H](O)[C@@H](O)[C@H]6O)[C@H](O)[C@H]5O[C@@H]5O[C@@H](C)[C@H](O)[C@@H](O)[C@H]5O)C(C)(C)[C@@H]4CC[C@@]3(C)[C@]1(C)CC2 | 8.3 | 4.1 | 33.8 |  |  |  |  |  |  |  |  |
